These results are taken from the supplement of paper PMC10307832.

Assay in all cases: relative viability (nuclei count vs DMSO), 5 days (fraction); higher = more cells survive
Compound in the experiment “Shikonin + Bortezomib”: CC(C)=CC[C@@H](O)C1=CC(=O)c2c(O)ccc(O)c2C1=O [Shikonin] + CC(C)C[C@H](NC(=O)[C@H](Cc1ccccc1)NC(=O)c1cnccn1)B(O)O [Bortezomib] (partner 0.002 µM)
An outline of the steps: (§1)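 Lung cancer cell lines were pin-tool dosed in 1536-well plates on the day after seeding, with either a lone drug or a fixed anchor-drug dose plus five library-drug doses (not always all listed) in √10 steps. Nuclei were counted on 4× images after 5 days. Relative viability is the ratio of treated-well to vehicle-well nuclei counts, with each value a median of duplicate plates.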

Compound in the experiment “Shikonin + OSI-027”: CC(C)=CC[C@@H](O)C1=CC(=O)c2c(O)ccc(O)c2C1=O [Shikonin] + COc1cccc2cc(-c3nc([C@H]4CC[C@H](C(=O)O)CC4)n4ncnc(N)c34)[nH]c12 [OSI-027] (partner 0.5 µM)
An outline of the steps: as §1

Compound in the experiment “Shikonin + Phenformin”: CC(C)=CC[C@@H](O)C1=CC(=O)c2c(O)ccc(O)c2C1=O [Shikonin] + N=C(N)NC(=N)NCCc1ccccc1 [Phenformin] (partner 250 µM)
An outline of the steps:
as §1

Compound in experiment [1]: CC(C)N(CCCNC(=O)Nc1ccc(C(C)(C)C)cc1)C[C@H]1O[C@@H](n2ccc3c(N)ncnc32)[C@H](O)[C@@H]1O + COc1cc2c(Oc3ccc(NC(=O)C4(C(=O)Nc5ccc(F)cc5)CC4)cc3F)ccnc2cc1OCCCN1CCOCC1 [Foretinib] (partner 0.25 µM)
The gist of the method: as §1

Consider UMC-11, for which the relative viability with Shikonin + Bortezomib (first compound 0.01 µM) turned out to be 0.773; with Shikonin + Bortezomib (first compound 0.1 µM) it was 0.854; with Shikonin + Bortezomib (first compound 0.3162 µM) it was 0.675; with Shikonin + Bortezomib (first compound 1 µM), 0.812; with Shikonin + OSI-027 (first compound 0.01 µM), 0.469; with Shikonin + OSI-027 (first compound 0.1 µM) it was 0.532. In addition, the relative viability with Shikonin + OSI-027 (first compound 0.3162 µM) was 0.492; with Shikonin + OSI-027 (first compound 1 µM), 0.526; in the experiment with Shikonin + Phenformin (first compound 0.01 µM), 0.337; with Shikonin + Phenformin (first compound 0.1 µM), 0.329; with Shikonin + Phenformin (first compound 0.3162 µM), 0.348; with Shikonin + Phenformin (first compound 1 µM) it was 0.331. Besides, the relative viability in experiment [1] (first compound 0.08 µM) is 0.979; in experiment [1] (first compound 0.253 µM), 0.984; in experiment [1] (first compound 0.8 µM), 1.06; in experiment [1] (first compound 2.53 µM) it was 0.975; in experiment [1] (first compound 8 µM), 1.02.
